The values that follow come from patent US10973832B2, “Muscarinic M1 receptor agonists” (Heptares Therapeutics Limited, priority 2011, dated 2021).

In data set [1] the target is T1, human muscarinic M4 receptor (Homo sapiens, UniProt P08173).
T1 construct: expressed in transfected cells
T1 sequence (P08173 1-479): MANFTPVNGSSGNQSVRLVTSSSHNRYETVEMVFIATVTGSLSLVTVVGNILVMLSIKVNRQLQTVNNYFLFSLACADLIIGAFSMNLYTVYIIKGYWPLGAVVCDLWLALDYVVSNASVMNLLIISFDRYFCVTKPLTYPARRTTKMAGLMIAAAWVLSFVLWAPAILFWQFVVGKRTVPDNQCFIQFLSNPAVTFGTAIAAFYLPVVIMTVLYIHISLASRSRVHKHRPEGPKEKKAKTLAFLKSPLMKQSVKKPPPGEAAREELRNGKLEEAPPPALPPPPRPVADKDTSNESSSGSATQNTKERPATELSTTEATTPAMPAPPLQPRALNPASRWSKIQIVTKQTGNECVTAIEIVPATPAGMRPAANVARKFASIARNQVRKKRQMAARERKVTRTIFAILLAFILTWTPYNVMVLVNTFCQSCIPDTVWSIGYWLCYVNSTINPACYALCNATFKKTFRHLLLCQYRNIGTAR
The data set is described as follows: Phospho-ERK1/2 assay, muscarinic M4. The note with it: for Emax: CHO, read-out: % Emax cf. ACh (M4). The format is cell-based. The method, boiled down: (§1)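 The assay used ERK1/2 phosphorylation as a common downstream read-out of Gq/11 and Gi/o receptor activation. CHO cells expressing each human receptor were exposed to agonist for five minutes at 37 °C after overnight serum starvation. Potency (pEC50) and maximal effect (Emax) came from the AlphaScreen signal.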

Data set [2] deals with T2, human muscarinic M1 receptor (Homo sapiens, UniProt P11229).
T2 sequence (P11229 1-460): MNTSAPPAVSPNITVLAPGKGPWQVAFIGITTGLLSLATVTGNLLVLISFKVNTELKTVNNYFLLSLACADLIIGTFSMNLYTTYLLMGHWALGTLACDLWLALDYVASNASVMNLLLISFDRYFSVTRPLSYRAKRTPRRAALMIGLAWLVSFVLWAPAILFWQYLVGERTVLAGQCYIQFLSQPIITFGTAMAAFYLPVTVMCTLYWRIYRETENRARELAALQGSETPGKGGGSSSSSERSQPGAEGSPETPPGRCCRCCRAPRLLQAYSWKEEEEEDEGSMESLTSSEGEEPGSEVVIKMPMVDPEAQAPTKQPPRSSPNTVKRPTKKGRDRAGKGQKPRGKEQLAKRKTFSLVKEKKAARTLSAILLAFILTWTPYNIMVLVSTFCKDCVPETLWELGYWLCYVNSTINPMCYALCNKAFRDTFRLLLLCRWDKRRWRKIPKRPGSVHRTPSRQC
The data set is described as follows: Phospho-ERK1/2 assay, muscarinic M1. The format is cell-based. The note with it: for Emax: CHO, read-out: % Emax cf. ACh (M1). The method in brief:
as §1

The next data set deals with Rats. Kind of data set: Irwin profile. The format is in vivo. The procedure:
The method, which detects the principal effects of a test substance on behaviour and physiological function, follows that described by Irwin (1968) Psychopharmacologia. Cholinergic side effects are potentially visible in the behavioural readout of the Irwin assay, and an absence of these side effects can be taken as an indication that agonism of the M2 and M3 receptors is not significant in vivo.
Rats are administered the test substance or its vehicle, and are observed in simultaneous comparison with a control group. Behavioural modifications, physiological and neurotoxicity symptoms, rectal temperature and pupil diameter are recorded according to a standardized observation grid derived from that of Irwin. The grid contains the following items: death, convulsions, tremor, Straub tail, altered activity, jumping, abnormal gait (rolling, tiptoe), motor incoordination, altered abdominal muscle tone, loss of grasping, akinesia, catalepsy, loss of traction, loss of balance, fore-paw treading, writhing, piloerection, stereotypies (sniffing, chewing, head movements), head-twitches, scratching, altered respiration, aggression, altered fear/startle, altered reactivity to touch, ptosis, exophthalmia, loss of righting reflex, loss of corneal reflex, analgesia, defecation/diarrhea, salivation, lacrimation, rectal temperature (hypothermia/hyperthermia) and pupil diameter (myosis/mydriasis). […]

The test system of data set [3] is scopolamine-induced amnesia. The data set is described as follows: Passive avoidance. The format is in vivo. The note with it: for reversal of scopolamine-induced amnesia: dose range 3, 10, 30 mg/kg po, scopolamine 1 mg/kg i.p.; for significance of reversal of scopolamine-induced amnesia: p<0.05 Bonferroni post hoc test. The method, then:
FIGS. 1-4 show the efficacy of the compounds of the invention. FIGS. 1-3 relate to the passive avoidance assay described in part B. Studies were carried out as described previously by Foley et al., (2004) Neuropsychopharmacology. In the passive avoidance task scopolamine administration (1 mg/kg, i.p.) at 6 hours following training rendered animals amnesic of the paradigm. A dose range of 3, 10, and 30 mg/kg (po) free base, administered 90 minutes prior to the training period via oral gavage, was examined.
Studies were carried out as described previously by Foley et al., (2004) Neuropsychopharmacology. In the passive avoidance task scopolamine administration (1 mg/kg, i.p.) at 6 hours following training rendered animals amnesic of the paradigm. A dose range of 3, 10, and 30 mg/kg (po) free base, administered 90 minutes prior to the training period via oral gavage, was examined.

The target in data set [4] is T3, human muscarinic M3 receptor (Homo sapiens, UniProt P20309).
T3 construct: expressed in transfected cells
T3 sequence (P20309 whole entry): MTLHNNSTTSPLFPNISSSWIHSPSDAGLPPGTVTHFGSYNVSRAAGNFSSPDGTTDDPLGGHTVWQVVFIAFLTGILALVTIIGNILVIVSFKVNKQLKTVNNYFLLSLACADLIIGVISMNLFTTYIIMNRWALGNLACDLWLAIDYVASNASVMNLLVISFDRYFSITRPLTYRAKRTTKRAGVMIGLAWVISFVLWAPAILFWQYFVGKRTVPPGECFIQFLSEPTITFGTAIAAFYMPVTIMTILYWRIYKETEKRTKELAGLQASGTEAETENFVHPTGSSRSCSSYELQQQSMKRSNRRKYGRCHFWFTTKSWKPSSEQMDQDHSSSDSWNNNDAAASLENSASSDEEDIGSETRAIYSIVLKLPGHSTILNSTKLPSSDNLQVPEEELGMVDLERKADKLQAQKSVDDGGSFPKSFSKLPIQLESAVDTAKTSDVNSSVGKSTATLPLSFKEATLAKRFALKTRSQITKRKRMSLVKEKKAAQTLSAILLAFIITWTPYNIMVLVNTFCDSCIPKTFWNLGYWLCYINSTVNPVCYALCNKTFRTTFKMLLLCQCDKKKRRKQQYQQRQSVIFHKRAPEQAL
Kind of data set: Phospho-ERK1/2 assay, muscarinic M3. As to conditions: for Emax: CHO, read-out: % Emax cf. ACh (M3). The format is cell-based. The method in brief: as §1

SMILES strings stand for the structures.

For `CCOC(=O)N1CCCC(N2CCC(C(=O)NC3(C)CCC3)CC2)CC1` (stereo not drawn) [Example 27, ethyl 4-(4-((1-methylcyclobutyl)carbamoyl)piperidin-1-yl)azepane-1-carboxylate], the EC50 in data set [1] is 427 nM; in data set [2] it was 45.7 nM; in data set [4], over 20000 nM. The maximal response (Emax) in data set [1] stood at 88%; in data set [2] it was 117%; in data set [4] it was 5%. Moreover, the “Irwin observation grid, effects on any parameter vs vehicle” value in the data set on Rats (3, 10, 30 and 75 mg/kg po, 15, 30, 60, 120, 180 minutes and 24 hours) is “No effects on any parameter were observed at any time point”. Further, in data set [3] (90 minutes prior to training), the “reversal of scopolamine-induced amnesia” value was “reverse scopolamine-induced amnesia of the paradigm in a dose-dependent manner”. Moreover, the 50% effective dose (ED50) in data set [3] (po, free base, 90 minutes prior to training, scopolamine 1 mg/kg i.p. 6 hours after training, read-out: approximate ED50, reversal of scopolamine-induced amnesia) was about 10 mg/kg.

On to `CCOC(=O)N1CCC[C@H](N2CCC(C(=O)NC3(C)CCC3)CC2)CC1` [Example 65, ethyl (4S)-4-{4-[(1-methylcyclobutyl)carbamoyl]piperidin-1-yl)azepane-1-carbondate], for which the values for the EC50 in data set [1], in data set [2] and in data set [4] were 224 nM, 31.6 nM and over 20000 nM, respectively. Moreover, the maximal response (Emax) was determined as 97% in data set [1], 104% in data set [2] and 11% in data set [4]. Also, in the data set on Rats (5, 10, 20 and 40 mg/kg, 15, 30, 60, 120 and 180 minutes), the “Irwin observation grid, effects on any parameter vs vehicle” value is “No significant effects on any parameter were observed”. Also, the “effect compared with donepezil (0.1 mg/kg, i.p.) positive control” value in data set [3] (10 mg/kg, FIG. 3) is listed as “not significantly different to that produced by the cholinesterase inhibitor donepezil”; in data set [3] (10 and 30 mg/kg, FIG. 2), “not significantly different to that produced by the cholinesterase inhibitor donepezil”. Further, the “significance of reversal of scopolamine-induced amnesia” value in data set [3] (acute 10 mg/kg po, FIG. 3) is reported as “significant effects”; in data set [3] (acute 10 and 30 mg/kg, FIG. 2) it was “significant effects”. In addition, in data set [3] (90 minutes prior to training), the “reversal of scopolamine-induced amnesia” value is on record as “reverse scopolamine-induced amnesia of the paradigm in a dose-dependent manner”.
